Measurements as given in article PMC4055595, “Pharmacokinetic Compatibility of Ginsenosides and Schisandra Lignans in Shengmai-san: From the Perspective of P-Glycoprotein” (PLoS ONE, 2014).
Like-named read-outs stand apart in the source and are kept apart here.

Experiments:
[1] = tested on: LLC-PK1 cells (lacking P-gp); experiment: Transport of digoxin and ginsenosides across LLC-PK1 cell monolayers; type: in vitro ADME; details: for Effect of verapamil on transport (efflux ratio): 10 µM verapamil; for Effect of SLE on transport (AP→BL, BL→AP): SLE 2.0 and 10.0 µg/mL
Protocol: (§1) LLC-PK1 cells, a cell line lacking P-gp, and the derived cell line L-MDR1, which over-express human MDR1-encoded P-gp, were grown in minimum essential medium with supplements at 37°C, 5% CO2, and 95% humidity. LLC-PK1 and L-MDR1 cells were seeded at a density of 12×10^6 cells per 150-cm^2 flask and grown for 7 days in medium 199 supplemented with 2 mM glutamine, 10% fetal bovine serum, 10 mg/500 mL of streptomycin, and 10,000 IU/500 mL of penicillin. To ensure a constant expression level of transport protein, L-MDR1 cells were grown in the presence of 640 nM vincristine. Cells were grown as monolayer on polycarbonate membrane filters (Transwell; Costar Corporation, Cambridge, MA) as outlined previously. Transepithelial resistance was measured in each well using a Millicell ERS ohmmeter (Millipore, Bedford, MA); wells registering a resistance of 200 ohms or greater, after correcting for the resistance obtained in control blank wells, were used in the transport experiments.
(§2) The LLC-PK1 and L-MDR1 cells were washed with warm Hank's balanced salt solution HBSS (pH 7.4) twice before transport experiment. HBSS containing verapamil (10 µM), SLE (2.0 and 10.0 µg/mL) or blank HBSS (control) was then loaded into both apical and basolateral chambers. After incubation at 37°C for 1.5 h, GE (100 µg/mL) was added to either the apical or basolateral side to evaluate the transport in absorptive and secretive directions, respectively. The cell monolayer was then incubated for another 2 h. Finally, the concentrations of ginsenosides were determined by LC/MS. All experiments were conducted in triplicate.
(§3) For the transport assay, the apparent permeability (P app, cm/s) in each direction (A→B and B→A) was calculated as follows, where A is the surface area of the membrane inserts (0.0804 cm^2), C 0 is the initial concentration of the compound applied in the donor compartment (2 µM), and △Q is the amount (micromoles) of compound transported over time △t (5 h = 18,000 s): [drawing 1]
(§4) The efflux ratio (ER) was a dimensionless number calculated as the ratio of the apparent permeability in the B→A direction divided by the apparent permeability in the A→B direction. [drawing 2]

[2] = tested on: LLC-PK1 cells (lacking P-gp); experiment: Uptake (intracellular accumulation) of digoxin and ginsenosides in LLC-PK1 cells; type: in vitro ADME; details: for Effect of verapamil on intracellular accumulation: 10 µM verapamil; for Effect of SLE on intracellular accumulation: SLE 2.0 and 10.0 µg/mL
Protocol: as §1
(§5) LLC-PK1 and L-MDR1 cells were incubated with SLE (2.0 and 10.0 µg/mL) or verapamil (10 µM) for 1.0 h, and then were washed to discard SLE or verapamil before adding 100 µg/mL of GE. The accumulation of GE lasted for 2 h, and the intracellular concentrations of ginsenosides were measured by LC/MS. All experiments were conducted in triplicate.

[3] = biological target: P-gp (MDR1) (Homo sapiens, UniProt P08183); experiment: Transport of digoxin and ginsenosides across L-MDR1 cell monolayers (efflux ratio); type: in vitro ADME; details: human, read-out: Efflux ratio (Papp BL-AP / Papp AP-BL)
Chain of P-gp (MDR1) (P08183 whole entry): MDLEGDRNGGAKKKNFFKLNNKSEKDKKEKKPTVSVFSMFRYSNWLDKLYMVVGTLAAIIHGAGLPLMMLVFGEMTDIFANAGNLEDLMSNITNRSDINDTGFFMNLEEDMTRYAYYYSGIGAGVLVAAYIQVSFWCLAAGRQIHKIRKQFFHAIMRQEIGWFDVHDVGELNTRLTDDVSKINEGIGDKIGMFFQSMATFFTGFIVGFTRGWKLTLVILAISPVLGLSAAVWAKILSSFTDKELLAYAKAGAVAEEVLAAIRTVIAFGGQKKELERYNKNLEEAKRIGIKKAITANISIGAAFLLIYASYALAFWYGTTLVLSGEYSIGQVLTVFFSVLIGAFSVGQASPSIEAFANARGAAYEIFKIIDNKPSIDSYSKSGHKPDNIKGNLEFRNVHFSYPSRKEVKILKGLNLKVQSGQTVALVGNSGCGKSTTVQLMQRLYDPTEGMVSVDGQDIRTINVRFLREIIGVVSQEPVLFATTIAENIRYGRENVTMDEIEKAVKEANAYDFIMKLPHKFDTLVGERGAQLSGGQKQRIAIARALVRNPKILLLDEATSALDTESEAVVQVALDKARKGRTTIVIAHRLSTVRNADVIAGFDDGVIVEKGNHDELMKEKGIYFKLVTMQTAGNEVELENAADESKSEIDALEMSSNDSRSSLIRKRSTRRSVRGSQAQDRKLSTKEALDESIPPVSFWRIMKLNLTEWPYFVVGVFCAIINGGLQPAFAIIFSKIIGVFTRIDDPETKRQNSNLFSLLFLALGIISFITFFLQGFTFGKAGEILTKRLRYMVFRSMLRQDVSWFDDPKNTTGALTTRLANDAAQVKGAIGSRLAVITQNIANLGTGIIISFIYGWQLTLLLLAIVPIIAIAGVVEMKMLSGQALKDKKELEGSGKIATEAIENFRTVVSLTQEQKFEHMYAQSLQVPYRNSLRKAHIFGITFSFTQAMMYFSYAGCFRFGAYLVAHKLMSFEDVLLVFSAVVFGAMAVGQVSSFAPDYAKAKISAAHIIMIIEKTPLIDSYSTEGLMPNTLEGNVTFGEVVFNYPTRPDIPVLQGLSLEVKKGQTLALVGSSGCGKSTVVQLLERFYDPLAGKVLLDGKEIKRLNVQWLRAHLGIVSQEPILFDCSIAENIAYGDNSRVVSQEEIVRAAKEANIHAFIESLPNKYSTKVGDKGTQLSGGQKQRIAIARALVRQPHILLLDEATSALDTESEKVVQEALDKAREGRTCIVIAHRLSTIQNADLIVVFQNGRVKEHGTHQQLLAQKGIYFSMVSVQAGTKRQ
Protocol: as §1, §2, §3, §4

[4] = biological target: T1, human MDR1-encoded P-gp (L-MDR1 cells) (Homo sapiens, UniProt P08183); experiment: as above; type: in vitro ADME; details: for Effect of verapamil on efflux ratio / Papp / Effect of SLE on efflux ratio / transport: L-MDR1 cells; for Effect of verapamil on efflux ratio / Papp: 10 µM verapamil; for Effect of SLE on efflux ratio / transport: SLE 2.0 and 10.0 µg/mL; for P-gp substrate classification: summary of transport/uptake in LLC-PK1, L-MDR1 and Caco-2 cells with verapamil
T1 sequence (P08183 whole entry): as above
Protocol: as §1, §2, §3, §4

[5] = Transport of digoxin and ginsenosides across Caco-2 cell monolayer (efflux ratio); type: in vitro ADME, human; details: human, Caco-2, pH 7.4
Protocol: (§6) Caco-2 cells were purchased from American Type Culture Collection (Manassas, VA), and were routinely cultured in Dulbecco's modified Eagle's medium supplemented with 10% fetal bovine serum, 1% nonessential amino acids, 1 mM sodium pyruvate, and 100 U/mL penicillin and streptomycin (Invitrogen, Carlsbad, CA). The cells were grown in an atmosphere of 5% CO2 at 37°C, and cell medium was changed every other day. Cells were seeded at a density of 4×10^4 cells per well in 24-well microporous polycarbonate insert filter plates (0.4-µm pore size) (Corning Costar plates; Corning Life Sciences, Lowell, MA) and grown for 15 days in Caco-2 growth medium. The medium was replaced every 3 to 4 days. Before running the assay, the culture medium was replaced by HBSS buffer supplemented with 10 mM Hepes and 20 mM glucose.
(§7) Caco-2 cells with a density of 1.2×10^5 cells/insert were seeded on a permeable polycarbonate insert (Millicell cell culture inserts, 0.4 µm pore size, 12 mm diameter; Millipore Corporation) in 24-well tissue culture plates and were used for the experiment 18 to 21 days after seeding. [^14C]Mannitol permeability and transepithelial electrical resistance measurements (Millicell-ERS epithelial volt-ohm meter; Millipore Corporation) were used to evaluate the integrity of Caco-2 cell monolayer. The monolayer used in transport studies had transepithelial electrical resistance values exceeding 600 Ω·cm^2, and the leakage of mannitol was less than 0.3% of the dose/h. Before transport initiation studies, the cell monolayer was first washed with warm HBSS (pH 7.4) twice. HBSS containing SLE (2.0 and 10.0 µg/mL) or 1% ethanol (control) was then loaded into both apical and basolateral chambers. After incubation at 37°C for 1.5 h, 100 µg/mL of GE was added to either the apical or basolateral side to evaluate the transport in absorptive and secretory directions, and the cell monolayer was incubated for another 2 h. 10 µM verapamil was used as a positive control inhibitor. At the designated time point, samples were taken from the receiving chamber for analysis. Ginsenosides were determined by LC-MS. All experiments were conducted in triplicate.
as §3, §4

[6] = biological target: T1, human MDR1-encoded P-gp (L-MDR1 cells); experiment: Uptake (intracellular concentration) of digoxin and ginsenosides in L-MDR1 cells; type: in vitro ADME
Protocol: as §1, §5

[7] = tested on: Caco-2 cell monolayer; experiment: Transport of digoxin and ginsenosides across Caco-2 cell monolayer (efflux ratio); type: in vitro ADME, human
Protocol: as §6, §7, §3, §4

[8] = tested on: Caco-2 cells; experiment: Uptake of digoxin and ginsenosides in Caco-2 cells; type: in vitro ADME, human
Protocol: as §6
Caco-2 cells were incubated with SLE (2.0 and 10.0 µg/mL) or verapamil (10 µM) for 1.0 h. Then the cells were washed with Hank's to discard SLE or verapamil before the addition of GE (100 µg/mL). The accumulation of ginsenosides lasted for 2 h, and the intracellular concentrations of ginsenosides were measured by LC/MS. All experiments were conducted in triplicate.

[9] = LLC-PK1, pH 7.4, L-MDR1 cells, control (absence of verapamil), GE 100 µg/mL, 2 h
[10] = LLC-PK1, pH 7.4, with verapamil 10 µM, L-MDR1 cells, presence of 10 µM verapamil
[11] = LLC-PK1, pH 7.4, L-MDR1 cells, presence of 10 µM verapamil

Structure (SMILES)	Effect of verapamil on transport (efflux ratio) [1]	Effect of verapamil on intracellular accumulation [2]	efflux ratio at 2 h, 100 µg/mL [3, 9]	efflux ratio at 2 h, 100 µg/mL [3, 10]	Effect of verapamil on efflux ratio / Papp [4]	Effect of SLE on efflux ratio / transport [4]	P-gp substrate classification [4]	efflux ratio at 2 h, 100 µg/mL [5]	Effect of SLE on transport (AP→BL, BL→AP) [1]	Effect of SLE on intracellular accumulation [2]	efflux ratio at 2 h [3, 11]	Increase of intracellular concentration by SLE ([6]; 2.0 µg/mL SLE)	Increase of intracellular concentration by SLE ([6]; 10.0 µg/mL SLE)	Effect of verapamil on efflux ratio ([7]; Caco-2 cells, 10 µM verapamil)	Effect of SLE on BL-AP transport / efflux ratio ([7]; Caco-2 monolayer, SLE 2.0 and 10.0 µg/mL)	Effect of verapamil on uptake ([8]; 10 µM verapamil)	Effect of SLE on intracellular concentration ([8]; SLE 2.0 and 10.0 µg/mL, P<0.01)
CC(C)=CCC[C@](C)(O[C@@H]1O[C@H](CO)[C@@H](O)[C@H](O)[C@H]1O)[C@H]1CC[C@]2(C)[C@@H]1[C@H](O)C[C@@H]1[C@@]3(C)CC[C@H](O)C(C)(C)[C@@H]3[C@@H](O)C[C@]12C [F1, ginsenoside F1]	No transport difference	almost not affected by verapamil	< 2	1.99	almost not affected by verapamil	almost not be affected by SLE	almost could not be transported by P-gp										
CC(C)=CCC[C@](C)(O[C@@H]1O[C@H](CO)[C@@H](O)[C@H](O)[C@H]1O)[C@H]1CC[C@]2(C)[C@@H]1[C@H](O)C[C@@H]1[C@@]3(C)CC[C@H](O)C(C)(C)[C@@H]3[C@@H](O[C@@H]3O[C@H](CO)[C@@H](O)[C@H](O)[C@H]3O[C@@H]3O[C@@H](C)[C@H](O)[C@@H](O)[C@H]3O)C[C@]12C [Re, ginsenoside Re]	No transport difference	almost not affected by verapamil	< 2	2.36	almost not affected by verapamil	almost not be affected by SLE	almost could not be transported by P-gp										
CC(C)=CCC[C@](C)(O[C@@H]1O[C@H](CO)[C@@H](O)[C@H](O)[C@H]1O)[C@H]1CC[C@]2(C)[C@@H]1[C@H](O)C[C@@H]1[C@@]3(C)CC[C@H](O)C(C)(C)[C@@H]3[C@@H](O[C@@H]3O[C@H](CO)[C@@H](O)[C@H](O)[C@H]3O)C[C@]12C [Rg1, ginsenoside Rg1]	No transport difference	almost not affected by verapamil	< 2	1.16	almost not affected by verapamil	almost not be affected by SLE	almost could not be transported by P-gp										
CC(C)=CCC[C@](C)(O)[C@H]1CC[C@]2(C)[C@@H]1[C@H](O)C[C@@H]1[C@@]3(C)CC[C@H](O)C(C)(C)[C@@H]3[C@@H](O[C@@H]3O[C@H](CO)[C@@H](O)[C@H](O)[C@H]3O[C@@H]3O[C@@H](C)[C@H](O)[C@@H](O)[C@H]3O)C[C@]12C [Rg2, ginsenoside Rg2]	No transport difference	no significant difference	> 3.5		significantly decrease of ER	significantly decreased	moderate P-gp substrates	4.26	No transport difference	no significant difference	1.52	1.7 fold	2.1 fold				
CC(C)=CCC[C@](C)(O)[C@H]1CC[C@]2(C)[C@@H]1[C@H](O)C[C@@H]1[C@@]3(C)CC[C@H](O[C@@H]4O[C@H](CO)[C@@H](O)[C@H](O)[C@H]4O[C@@H]4O[C@H](CO)[C@@H](O)[C@H](O)[C@H]4O)C(C)(C)[C@@H]3CC[C@]12C [Rg3, ginsenoside Rg3]	No transport difference	no significant difference			significantly decrease of ER	significantly decreased	moderate P-gp substrates		No transport difference	no significant difference		2.5 fold	2.9 fold	decreased significantly	concentration dependently decrease	significantly enhanced	concentration dependently increase
CC(C)=CCC[C@](C)(O)[C@H]1CC[C@]2(C)[C@@H]1[C@H](O)C[C@@H]1[C@@]3(C)CC[C@H](O)C(C)(C)[C@@H]3[C@@H](O[C@@H]3O[C@H](CO)[C@@H](O)[C@H](O)[C@H]3O)C[C@]12C [Rh1, ginsenoside Rh1]	No transport difference	almost not affected by verapamil	< 2		almost not affected by verapamil	almost not be affected by SLE	almost could not be transported by P-gp				1.6						
